Data on 13 compounds can be found in PubChem BioAssay (NCI).

Holding throughout (assay): inhibition of tumour cell growth, NCI panel, 48 h
Experiment [1] relates to A498 renal.
For experiment [2], the system named is NCI-H23 lung.
The test system of experiment [3] is HCT-15 colon.
In experiment [4] the test system is DU-145 prostate.
Experiment [5] deals with HS 578T breast.
The test system of experiment [6] is RPMI-8226 leukemia.
Experiment [7] relates to SK-MEL-5 melanoma.
Experiment [8] relates to IGROV1 ovarian.
The subject of experiment [9] is EKVX NSCLC.
The subject of experiment [10] is MALME-3M melanoma.

Each structure is given as a SMILES string.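 Cultured in 96-well plates, cells were exposed to test compound for 48 hours across five concentrations. Abbreviation: GI50, concentration required for 50% inhibition of growth. Definition used: TGI = concentration required for complete inhibition of growth.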 Where a SMILES comes first, the peptide text is derived from it. [ ]: non-standard residue; d: D form. The star is where a group is joined. ξ: configuration not given here. X6 = FC(F)(F)c1cc(NC(=S)*)cc(C(F)(F)F)c1; ξF = NC(Cc1ccccc1)C(=O)O Some results are limits rather than exact numbers.

As for `NC(=O)c1sc(-n2cnc3ccccc32)cc1OCc1ccccc1Br`, the GI50 in experiment [1] was 4.11 µM; in experiment [2], 4.03 µM; in experiment [3], 6.95 µM; in [4], 2.02 µM; in experiment [5] it was 9.11 µM; in experiment [6] it was 12.6 µM. The GI50 is 4.75 µM in experiment [7], 11 µM in experiment [8] and 17.9 µM in experiment [9]. In addition, the TGI in [1] is 14.4 µM; in experiment [2] it was more than 25 µM; in experiment [3] it was more than 25 µM; in [4], 7.19 µM; in experiment [5] it was more than 25 µM; in experiment [6], more than 25 µM. The TGI in [7], in [8] and in experiment [9] was more than 25 µM in each case.
For `O=C(Nc1ccccc1)NS(=O)(=O)c1ccc(-n2nc3c(c2-c2cccs2)Cc2ccccc2-3)cc1`, the GI50 is 12.2 µM in [2]; 16.9 µM in experiment [3]; 28.6 µM in experiment [4]; 16.8 µM in [5]; 5.49 µM in experiment [6]; 15.6 µM in [7]. In addition, the GI50 in experiment [8] was 21.4 µM; in experiment [9], 26.1 µM. Further, the TGI turned out to be 29.6 µM in experiment [2]; 44.7 µM in experiment [3]; 96.2 µM in experiment [4]; 52.5 µM in [5]; 66.4 µM in experiment [6]; 31.5 µM in experiment [7]. The TGI in [8] is more than 100 µM; in [9], 87.2 µM.
For the compound `O=C(O)CSc1ccc([N+](=O)[O-])cc1[N+](=O)[O-]`, the TGI in experiment [1], in experiment [2], in experiment [3], in experiment [4], in [5] and in experiment [6] was more than 100 µM each time. Besides, the TGI in experiment [8], in [9] and in experiment [10] was more than 100 µM each time.
Take `Cn1c2ccccc2c2c(Nc3ccccc3)c3ccccc3nc21`: the GI50 in experiment [2] is 31.4 µM; in [3], 14.1 µM; in experiment [4] it was 9.35 µM; in experiment [5], 18.2 µM; in experiment [6], 3.34 µM; in experiment [7] it was 13.7 µM. Moreover, the GI50 in experiment [8] was 61.3 µM; in [9], 14.3 µM; in experiment [10] it was 15.4 µM. For the same compound, the TGI is 67.4 µM in [2]; 60.5 µM in [3]; 50.4 µM in [4]; 60 µM in experiment [5]; 30.5 µM in experiment [6]; 28.1 µM in [7]. For the same compound, the TGI in experiment [8] is more than 100 µM; in experiment [9], 51.1 µM; in experiment [10] it was 33.9 µM.
For the compound `COc1cc(CNc2cnc3cc(N)cc(N)c3n2)cc(OC)c1`, the GI50 was 17.3 µM in [2]; 17.6 µM in experiment [3]; 41.4 µM in experiment [4]; 17 µM in experiment [5]; 6 µM in experiment [6]; 18.7 µM in experiment [7]. In addition, the GI50 is 33.6 µM in [8] and 27.3 µM in [9]. In addition, the TGI in [2] was 39.8 µM; in [3], 38.1 µM; in experiment [4] it was more than 100 µM; in experiment [5] it was 52 µM; in experiment [6] it was 20 µM; in experiment [7], 36.1 µM. Besides, the TGI is more than 100 µM in experiment [8] and 67.4 µM in [9].
Regarding `CCCCOC(=O)C1OC(O[C@H]2CCC3(C)C(CCC4(C)C3CC=C3C5CC(C)(C)CCC5(C(=O)O)CC[C@]34C)C2(C)C)C(OC2OC(CO)C(O)C(O)C2O)C(OC2OC(CO)C(O)C(O)C2O)C1O` (stereo partly drawn), the GI50 was 22.8 µM in experiment [2]; 20.9 µM in experiment [3]; 38 µM in [5]; 33.1 µM in [7]; more than 100 µM in experiment [8]; 24.4 µM in experiment [9]. The TGI in experiment [2] is 47.6 µM; in experiment [3] it was 51 µM; in experiment [5], more than 100 µM; in [7], more than 100 µM; in experiment [8] it was more than 100 µM; in experiment [9], 49.7 µM.
Regarding `COC(=O)[C@@H](NC(=O)CNC(=O)[C@H]1CCCN1C(=O)C(Cc1ccccc1)NC(=S)Nc1cc(C(F)(F)F)cc(C(F)(F)F)c1)C(C)C` (stereo partly drawn) (X6-[ξF][dP]GV-OMe), the GI50 in [1] is 2.11 µM; in [2], 2.53 µM; in experiment [3], 2.29 µM; in [4], 4.85 µM; in [5] it was 2.47 µM; in [7], 1.45 µM. Moreover, the GI50 in experiment [8] is 3.31 µM; in experiment [9], 3.12 µM; in experiment [10], 3.88 µM. For the same compound, the TGI in experiment [1] was determined as 7.92 µM; in experiment [2] it was 8.02 µM; in [3], 5.37 µM; in [4], 20.8 µM; in [5] it was 8.49 µM; in experiment [7], 2.79 µM. Besides, the TGI in [8] turned out to be 10.3 µM; in experiment [9], 22.3 µM; in experiment [10], 15.1 µM.
For `CC1=C(C(=O)Nc2ccc(Cl)c(Cl)c2)C(c2cccc(Oc3ccccc3)c2)NC(=S)N1` (stereo not drawn), the GI50 is 8.93 µM in [3]; 6.88 µM in [4]; 5.03 µM in [5]; 11.2 µM in [6]; 7.89 µM in experiment [7]; 7.72 µM in [8]. Further, in experiment [9], the GI50 is 7.55 µM. The TGI in experiment [3] is 17.4 µM; in experiment [4], 13.3 µM; in experiment [5] it was 13.5 µM; in [6], more than 50 µM; in experiment [7], 15 µM; in [8], 19 µM. The TGI in experiment [9] was 15 µM.
Turning to `OCc1ccc(N2CCC2c2ccc(F)cc2)cc1Cl` (stereo not drawn), the GI50 is 0.0584 µM in [1]; 22.2 µM in [2]; 21.5 µM in experiment [3]; 35.8 µM in experiment [4]; 26.7 µM in experiment [5]; 6.56 µM in experiment [6]. The results for the GI50 in experiment [7] and in experiment [10] were 8.92 µM and 29.4 µM, respectively. The TGI was 0.244 µM in experiment [1]; more than 80.1 µM in experiment [2]; more than 100 µM in experiment [3]; more than 100 µM in experiment [4]; more than 86.8 µM in [5]; 31.6 µM in experiment [6]. In addition, the TGI in experiment [7] was 22.9 µM; in experiment [8], 0.742 µM; in [10] it was more than 66.1 µM.
In the case of `COc1cc(Cc2cnc(/N=C3\C(=O)N(CN4CCN(c5c(F)cc6c(=O)c(C(=O)O)cn(C7CC7)c6c5OC)CC4C)c4ccc(F)cc43)nc2N)cc(OC)c1OC` (stereo not drawn), the GI50 was 26 µM in experiment [1]; 18.1 µM in [2]; 1.35 µM in experiment [3]; 23.6 µM in experiment [5]; 2.31 µM in experiment [6]; 18.3 µM in experiment [7]. In addition, the GI50 in [8] is 25.1 µM; in experiment [9], 21.9 µM. Moreover, the TGI turned out to be 49.7 µM in experiment [1]; 42.9 µM in [2]; 5.18 µM in experiment [3]; 82.5 µM in experiment [5]; 8.24 µM in experiment [6]; 35.2 µM in [7]. Further, the TGI in [8] was more than 100 µM; in experiment [9], 56.6 µM.
For `CC1(C)CCc2c(c3c(c4c(=O)c(O)c(-c5ccc(O)cc5)oc24)OC(C)(C)CC3)O1`, the GI50 was 75.7 µM in experiment [2]; more than 100 µM in experiment [3]; 85.1 µM in [4]; 69.8 µM in experiment [5]; more than 100 µM in experiment [6]; more than 100 µM in [7]. Besides, the GI50 in experiment [8] was more than 100 µM; in experiment [9], 34.5 µM; in [10] it was more than 100 µM. Further, the TGI in experiment [2], in [3], in experiment [4], in experiment [5], in [6] and in [7] was more than 100 µM throughout. In addition, the TGI in [8], in [9] and in [10] was more than 100 µM each time.
In the case of `COc1ccc2c(C3=C(c4cn(C)c5ccccc45)C(=O)NC3=O)cn(C)c2c1`, the GI50 in experiment [1] was 0.054 µM; in experiment [2], 0.143 µM; in [3], 0.116 µM; in experiment [4], 0.137 µM; in [5] it was 0.113 µM; in [6], 0.11 µM. Besides, the GI50 in [7] is 0.0899 µM; in experiment [8], 0.147 µM; in experiment [10] it was more than 25 µM. Besides, the TGI in experiment [1] is 0.215 µM; in [2], more than 25 µM; in [3], more than 25 µM; in experiment [4], more than 25 µM; in experiment [5], more than 25 µM; in [6], more than 25 µM. In addition, the figures for the TGI in [7], in experiment [8] and in [10] were 2.57 µM, more than 25 µM and more than 25 µM, respectively.
With `C#Cc1ccc(-n2c(/C=C/c3ccc(C(F)(F)F)cc3)nc3ncccc3c2=O)cc1`, the GI50 is 2.34 µM in [1]; 3.9 µM in experiment [2]; 1.74 µM in [3]; 3.76 µM in experiment [4]; 3.46 µM in experiment [5]; 1.39 µM in experiment [6]. In addition, the values for the GI50 in experiment [7], in experiment [8] and in experiment [10] were 1.49 µM, 1.96 µM and 1.64 µM, respectively. Moreover, the TGI in experiment [1] was 5.76 µM; in [2], 19 µM; in experiment [3] it was 3.68 µM; in [4], 12.2 µM; in [5] it was more than 100 µM; in experiment [6], 6.28 µM. Also, the values for the TGI in experiment [7], in experiment [8] and in experiment [10] were 2.87 µM, 4.02 µM and 3.57 µM, respectively.
